Measurements taken from EP4678629A1, “IONIZABLE LIPID MOLECULE, PREPARATION METHOD THEREFOR AND USE THEREOF” (Maxirna (Shanghai) Pharmaceutical Co., Ltd., priority 2023, dated 2024).

Tests used:
[1] = In vitro transfection of cells with eGFP-mRNA lipid nanoparticle (LNP preparation), fluorescence imaging and flow cytometry; format: cell-based, mouse; settings: mouse, dc2.4 cells, 200 ng of mRNA per well, after 24 hours; read-out: Cell viability, %
Source text: (§1) This example used mouse bone marrow-derived dendritic cells DC2.4 (purchased from Millipore) as the validation cell line for a lipid nanoparticle transfection experiment. DC2.4 cells adhered to the wall for growth. All operational steps of cell culture strictly followed the prescribed procedures, using sterile reagents for aseptic operations under a sterile workbench. The main operational steps involved were as follows: • 1) Cell recovery: the preserved cell cryopreservation solution was removed from the -80 °C freezer and immediately placed in a 37 °C water bath for rapid and continuous shaking, allowing it to completely melt within one minute. Fresh culture medium was added to a 15 mL centrifuge tube in advance, and the cell fluid was added to the centrifuge tube in a biosafety cabinet. A centrifuge tube of the same mass was taken, placed symmetrically in the centrifuge, and centrifuged at low speed for 5 minutes at 1200 rpm. After centrifugation, the upper clear liquid was removed, and an appropriate amount of culture medium was slowly added along the tube wall. After the cells were gently blown and dispersed evenly, the cell suspension was drawn and added to the prepared culture bottle. The state and distribution of cells in the early stage of recovery were observed under a microscope. The culture bottle was incubated in a 5% CO2 incubator at 37 °C, and the recovery time was recorded. • 2) Cell passaging: Under a microscope, if the cell density in the field of view reached 80%-90%, cells could be passaged and cultured. Adherent cells required trypsin digestion. In order to avoid residual serum in the culture medium reducing trypsin activity, the original culture medium was removed, and DPBS solution was added to wash once. After suctioning out the DPBS solution, trypsin was added to degrade the protein at the intercellular junction, thereby separating the cells and facilitating further cultivation. The mixture was gently shaken well and placed into the incubator for digestion for 2-3 minutes. After digestion was complete, an appropriate amount of culture medium was immediately added to the original culture dish to terminate digestion. Finally, a pipette was used to carefully blow off the cells and blow them until they were evenly dispersed, and then the cells were inoculated and subcultured in a certain proportion according to experimental requirements.
(§2) Transfection of DC2.4 cells • 1) DC2.4 cell recovery: the frozen DC2.4 cells were taken out from the -80 °C refrigerator and immediately put into a 37 °C water bath for rapid thawing. After melting, they were added to the preheated culture medium, and centrifuged at 1200 rpm for 5 minutes. The supernatant was discarded, and an appropriate amount of DMEM medium containing 10% FBS was added to resuspend the recovered DC2.4 cells, which were placed in a 37 °C, 5% CO2 incubator for activation culture. • 2) According to experimental requirements, DC2.4 cells were transfected into 24 well plates one day in advance. By counting cells, the number and viability of cells were recorded, and a cell suspension with 2 × 10^5 cells per well were taken. Then, a certain volume of DMEM medium containing 10% FBS was added and mixed evenly, wherein 1 mL was added per well for subsequent transfection experiments. • 3) After 24 hours, the culture medium was gently aspirated with a pipette 30 minutes in advance, and each well was washed with 1 mL of DPBS and aspirated. […] The mixture was placed in a 37 °C, 5% CO2 incubator for activation cultivation. • 6) After 24 hours, cell viability (%), eGFP positivity rate (%), and mean fluorescence intensity data were obtained through cell fluorescence imaging and flow cytometry.

DC2.4 cells = assay: as above; format: cell-based, mouse; settings: eGFP positivity rate, DC2.4 cells, 200 ng of mRNA per well, after 24 hours
Source text: as §1, §2

[2] = Encapsulation efficiency of the lipid nanoparticle (eGFP mRNA) by Ribogreen method; format: physicochemical; settings: LNP encapsulating eGFP mRNA, ionizable lipid/DOPE/cholesterol/DMG-PEG2000 50/10/48.25/1.25 mol%, N/P 12
Description: (§3) The ionizable lipid compound and positive control 1 from Example I were dissolved in ethanol at a molar ratio of 50:10:48.25:1.25 with DOPE, cholesterol, and DMG-PEG2000 (all purchased from A.V.T (Shanghai) Pharmaceutical Co., Ltd.) to prepare an ethanol lipid solution. The enhanced green fluorescent protein (eGFP) mRNA was diluted in 20 mM citrate buffer (pH=6.1) to obtain an mRNA aqueous solution. By using a microfluidic device (Micro&Nano Biologics Co., Ltd., model: INano ™ L) mix ethanol lipid solution and mRNA aqueous solution in a volume ratio of 1:3 to prepare a lipid nanoparticle with a total lipid to mRNA N/P ratio of 12. The medium was replaced by ultrafiltration, ethanol was removed and volumed with DPBS. Finally, the lipid nanoparticle was filtered through a 0.2 µm sterile filter to obtain an LNP preparation encapsulating eGFP mRNA using ionizable lipid/DOPE/cholesterol/DMG-PEG2000 (50/10/48.25/1.25 mol%), with an mRNA content of 0.002 mg/ml-0.5 mg/mL.
(§4) Using Malvern Zetasizer Nano ZS (Malvern UK), the size and polydispersity index (PDI) of the lipid nanoparticle were determined by dynamic light scattering in 173° backscatter detection mode, and the encapsulation efficiency was measured by Ribogreen method.

[3] = Size and polydispersity index (PDI) of the lipid nanoparticle by dynamic light scattering; format: physicochemical; settings: LNP encapsulating eGFP mRNA, ionizable lipid/DOPE/cholesterol/DMG-PEG2000 50/10/48.25/1.25 mol%, N/P 12; for Particle size: in nm (unit assumed)
Description: as §3, §4

Structure (SMILES)	viability at 24 h [1] [%]	Positive rate, % (DC2.4 cells) [%]	Encapsulation rate, % [2] [%]	PDI [3]	Particle size [3]
CCCCC/C=C\C/C=C\CCCCCCCCOC(=O)CCCCCCCN(CCO)CCCN(CCCCCCCC(=O)OCCCCCCCC/C=C\C/C=C\CCCCC)CCCCCCCC(=O)OCCCCCCCC/C=C\C/C=C\CCCCC [Example 24, Di((9Z,12Z)-octadeca-9,12-dien-1-yl)8,8'-((3-((2-hydroxyethyl)(8-(((9Z,12Z)-octadeca-9,12-dien-1-yl)oxo)-8-oxooctyl)amino)propyl)azanediyl)dioctanoate]	76	92.27	97.73	0.15	
CCCCCC/C=C\COC(=O)CCCCCN(CCO)CCCN(CCCCCC(=O)OC/C=C\CCCCCC)CCCCCC(=O)OC/C=C\CCCCCC [Example 25, Di((Z)-non-2-en-1-yl)6,6'-((3-((2-hydroxyethyl)(6-(((Z)-non-2-en-1-yl)oxo)-6-oxohexyl)amino)propyl)azanediyl)dihexanoate]	76.6	94.29	98.27	0.17	
CCCCCCCCCCCCCOC(=O)CCCCCN(CCO)CCCN(CCCCCC(=O)OCCCCCCCCCCCCC)CCCCCC(=O)OCCCCCCCCCCCCC [Example 26, Ditridecyl 6,6'-((3-((2-hydroxyethyl)(6-oxo-6-(tridecyloxy)hexyl)amino)propyl)azanediyl)dihexanoate]	98.1	95.84	99.66	0.09	95.80
CCCCCCCCCCCOC(=O)CCCCCN(CCCO)CCCN(CCCCCC(=O)OCCCCCCCCCCC)CCCCCC(=O)OCCCCCCCCCCC [Example 27, Diundecyl 6,6'-((3-((3-hydroxypropyl)(6-oxo-6-(undecyloxy)hexyl)amino)propyl)azanediyl)dihexanoate]	98.2	97.36	99.65	0.12	88.43
CCCCCCCCCCCOC(=O)CCCCCN(CCCCO)CCCN(CCCCCC(=O)OCCCCCCCCCCC)CCCCCC(=O)OCCCCCCCCCCC [Example 28, Diundecyl 6,6'-((3-((4-hydroxybutyl)(6-oxo-6-(undecyloxy)hexyl)amino)propyl)azanediyl)dihexanoate]	92.9	97.51	99.47	0.17	
CCCCCCCCCCCCCOC(=O)CCCCCCCN(CCCO)CCCN(CCCCCCCC(=O)OCCCCCCCCCCCCC)CCCCCCCC(=O)OCCCCCCCCCCCCC [Example 29]	96.7	95.33	99.55	0.16	
CCCCCCCCCCCCCOC(=O)CCCCCN(CCCO)CCCN(CCCCCC(=O)OCCCCCCCCCCCCC)CCCCCC(=O)OCCCCCCCCCCCCC [Example 30, 6,6'-((3-((3-hydroxypropyl)(6-oxo-6-(tridecyloxy)hexyl)amino)propyl)azadiyl)ditridecyl dihexanoate]	96.9	96.41	99.66	0.09	
CCCCCCCCCCCCCOC(=O)CCCCCN(CCCCO)CCCN(CCCCCC(=O)OCCCCCCCCCCCCC)CCCCCC(=O)OCCCCCCCCCCCCC [Example 31, 6,6'-((3-((4-hydroxybutyl)(6-oxo-6-(tridecyloxy)hexyl)amino)propyl)azadiyl)ditridecyl dihexanoate]	94.4	97.43	99.36	0.15	84.05
CCCCCCCCCCCOC(=O)CCCCCCN(CCO)CCCN(CCCCCCC(=O)OCCCCCCCCCCC)CCCCCCC(=O)OCCCCCCCCCCC [Example 32]	96.6	95.28	99.30	0.13	83.34
CCCCCCCCCCCCCOC(=O)CCCCCCN(CCO)CCCN(CCCCCCC(=O)OCCCCCCCCCCCCC)CCCCCCC(=O)OCCCCCCCCCCCCC [Example 33]	96.4	95.18	98.96	0.13	
CCCCCCCCCCCCCOC(=O)CCCCCCN(CCCO)CCCN(CCCCCCC(=O)OCCCCCCCCCCCCC)CCCCCCC(=O)OCCCCCCCCCCCCC [Example 34]	95	93.19	99.39	0.16	82.74
CCCCCCCCCCCCCOC(=O)CCCCCCN(CCCCO)CCCN(CCCCCCC(=O)OCCCCCCCCCCCCC)CCCCCCC(=O)OCCCCCCCCCCCCC [Example 35]	97.2	98.59	99.50	0.12	92.18
CCCCCCCCCCCOC(=O)CCCCCCN(CCCO)CCCN(CCCCCCC(=O)OCCCCCCCCCCC)CCCCCCC(=O)OCCCCCCCCCCC [Example 36]	94.2	93.6	99.39	0.16	89.30
CCCCCCCCCCCOC(=O)CCCCCCN(CCCCO)CCCN(CCCCCCC(=O)OCCCCCCCCCCC)CCCCCCC(=O)OCCCCCCCCCCC [Example 37]	96.6	89.37	99.26	0.15	77.57
CCCCCCCCCCCCCOC(=O)CCCCN(CCO)CCCN(CCCCC(=O)OCCCCCCCCCCCCC)CCCCC(=O)OCCCCCCCCCCCCC [Example 39, Ditridecyl 5,5'-((3-((2-hydroxyethyl)(5-oxo-5-(tridecyloxy)pentyl)amino)propyl)azadiyl)dipentanoate]	96.9	91.26	97.58	0.13	89.31
CCCCCCCCCCCCCOC(=O)CCCCN(CCCO)CCCN(CCCCC(=O)OCCCCCCCCCCCCC)CCCCC(=O)OCCCCCCCCCCCCC [Example 40]	97.7	99.14	99.29	0.14	63.23
CCCCCCCCCCCCCOC(=O)CCCCN(CCCCO)CCCN(CCCCC(=O)OCCCCCCCCCCCCC)CCCCC(=O)OCCCCCCCCCCCCC [Example 41, Ditridecyl 5,5'-((3-((4-hydroxybutyl)(5-oxo-5-(tridecyloxy)pentyl)amino)propyl)azadiyl)dipentanoate]	97.2	96.42	96.67	0.13	71.17
